# “Also recorded” adds a separate entry of the source. Counter-ions that a name gives are not always drawn.
# Experiments:
# [1] = system: ion channel currents (calcium, potassium and sodium channels); settings: in vitro experiments and in animals; cited from earlier work
# Human CD34+ cells = experiment: in vitro erythroid differentiation assay of CD34+ cells with RPS19 shRNA; format: cell-based; parameters: p21 mRNA: dose or concentration left out as unconfirmed; settings: for rescue of CD71+ expression: day 10 of erythroid differentiation, flow cytometry
# Protocol: (§1) A549 and CD34+ cells were infected with previously characterized lentiviral shRNA targeting RPS19 (Dutt et al., 2011). Unless otherwise noted, drugs were added one day post infection, and cells were collected for analysis 3-6 days post infection.
# (§2) As DBA is a hematopoietic disorder, the inventors next tested the effects of A-3 in CD34+ cells with RPS19 knockdown by siRNA. In an in vitro system that mimics the differentiation of erythrocytes in vivo, the inventors knocked down RPS19 using shRNA. Human CD34+ cells are expanded in culture for 4 days and then infected with RPS19 shRNA or luciferase control shRNA lentiviral construct, selected with puromycin for 2 days and on day 7, the media is replaced with media containing high EPO to initiate erythroid differentiation (FIG. 6A). When RPS19 is reduced during erythroid differentiation, p21 mRNA levels increased about 6-fold compared to luciferase-infected controls and the transferrin receptor, CD71+ and a marker that is first detected at the proerythroblast stage, glycophorin A (GPA), are reduced 40% and 50%, respectively (Dutt et al., 2011).
# [2] = system: rps29−/− zebrafish embryos; experiment: flk1 whole-mount in situ hybridization (intersegmental vessel staining) in rps29−/− embryo chemical screen; format: in vivo; settings: rps29−/− embryos treated from bud to 23 hpf, flk1 ISH at 24 hpf
# Protocol: Fish were maintained under approved laboratory conditions.
# (§3) Whole-mount in situ hybridization (ISH) was performed as described (Thisse and Thisse, 2008). Antisense probes were synthesized from digested plasmid. O-Dianisidine was performed as described previously (Paffett-Lugassy and Zon, 2005).
# A549 cells [3] = experiment: flow cytometry of p53 and p21 protein in A549 cells with RPS19 shRNA; format: cell-based; settings: for p21 protein level / p53 protein level: A549, RPS19 shRNA, drug 24 hours post infection, analyzed 3-6 days post infection
# Protocol: as §1
# (§4) For flow cytometry based measurement of protein levels, cells were fixed in 2% paraformaldehyde for 15 minutes at 37° C., and methanol was added for overnight incubation at 4° C. Cells were incubated for one hour in 1:100 diluted p21 primary antibody (Cell Signaling 12D1) followed by one hour in conjugated secondary antibody and 1:50 diluted p53-conjugated antibody (Cell Signaling 1C12). Immunofluorescence staining was performed as previously described (Dutt et al., 2011).
# The inventors next tested the effect of calmodulin inhibitors in A549 cells, where p53 is not mutated and is induced upon ribosomal protein knockdown (Fumagalli et al., 2009). A549 cells were infected with control or RPS19 shRNA and treated with A-3 or TFP 24 hours post infection. Cells were analyzed 3-6 days post infection. […] In addition, removal of drug leads to an increase in p21 levels within 24 hours (data not shown).
# A549 cells [4] = experiment: immunofluorescence staining for p53 and p21 nuclear localization in A549 cells with RPS19 knockdown; format: cell-based; settings: for p53 nuclear staining intensity: p=0.00028 for A-3; for p53 nuclear accumulation: A549 cells
# Protocol: as §1, §4
# Immunofluorescence staining for p53 and p21 was performed on chemically treated cells (FIG. 4A). For 10-15 cells per condition, average nuclear and cytoplasmic intensity was determined using ImageJ.
# A549 cells [5] = experiment: flow cytometry for annexin and propidium iodide in A549 cells; format: cell-based
# Protocol: (§5) FIGS. 4A-4D show treatment with A-3 inhibits p53 and p21 nuclear localization upon rps19 knockdown.
# as §1
# A549 cells [6] = experiment: cell cycle status by flow cytometry (propidium iodide) in A549 cells; format: cell-based
# Protocol: as §5, §1
# [7] = system: human T cells subjected to ionizing radiation; settings: read-out: EC50, prevention of apoptosis; cited from earlier work
# rps29 mutant embryos = experiment: benzidine staining for hemoglobin levels in rps29 mutant embryos; format: in vivo, zebrafish; settings: benzidine staining at 40 hpf
# Protocol: Fish were maintained under approved laboratory conditions. […] .
# as §3
# CD34+ cells = experiment: p21 protein by FACS in CD34+ cells with RPS19 knockdown in erythroid proliferation media; format: cell-based, human
# Protocol: as §1, §4
# as §2, with “Human CD34+ cells are expanded in culture for 4 days and then infected with RPS19 shRNA or luciferase control shRNA lentiviral construct, selected with puromycin for 2 days and on day 7, the media is replaced with media containing high EPO to initiate erythroid differentiation (FIG. 6A).” left out
# [8] = system: calmodulin dependent PDE1; settings: cited from earlier work
# [9] = system: rps29−/− zebrafish embryos; experiment: head morphology scoring in rps29−/− embryo chemical screen; settings: 24 hpf
# Protocol: Fish were maintained under approved laboratory conditions. Studies were performed on AB wildtype strains and hi2903, an insertional mutant in the first intron of ribosomal protein S29 (rps29). Embryos were subjected to chemicals diluted in E3. For screening, chemicals from ICCB Biomol Known Bioactive, Sigma, and Lopac libraries were tested at 1:300 dilutions from library stock. Compounds were tested in two independent experiments of 20 embryos each, so approximately 10 mutant embryos were scored per chemical. […] Nimodipine (Enzo) was diluted in DMSO and tested in doses from 1.5 to 20 μg/mL. SNAP (Cayman) was diluted in DMSO and tested in doses from 0.5 to 5 μg/mL. YS-035 (Sigma) was diluted in water and treated in doses from 0.8 to 8 μg/mL. Vinpocetine (Enzo) was diluted in ethanol and treated in doses from 0.3 to 3 μg/mL.
# A screen was performed to identify chemicals that could rescue the endothelial and morphological defects of the rps29^−/− mutant embryo (FIG. 1A). Rps29^−/− fish were incrossed, and embryos were collected for treatment at bud stage (10 hpf). Embryos were treated from bud to 23 hpf with compounds of known bioactivity. After being scored for rescue of head morphology, embryos were fixed at 24 hpf for in situ hybridization of flk1 and rps29. Embryos without rps^29 staining (rps29^−/− mutants) were scored for rescue of flk1 intersegmental vessel staining.
# [10] = cited from earlier work
# [11] = A549, RPS19 knockdown, ImageJ, 10-15 cells per condition
smiles,measurement,setting,value
CC(C)COCC(CN(Cc1ccccc1)c1ccccc1)N1CCCC1 (centres unmarked) [bepridil],IC50 for these processes,[1],low micromolar range
"OCCN1CCN(CCCN2c3ccccc3Sc3ccc(C(F)(F)F)cc32)CC1 [fluphenazine, 4-[3-[2-(trifluoromethyl)phenothiazin-10-yl]propyl]-1-piperazineethanol]",rescue of blood cell differentiation,Human CD34+ cells,can rescue blood cell differentiation
same,rescue of CD71+ expression,Human CD34+ cells; RPS19 shRNA,rescue CD71+ expression
"CCOC(=O)C1=C[C@]2(CC)CCCN3CCc4c(n1c1ccccc41)[C@@H]32 [Vinpocetine, ethyl apovincaminate]",rescue of flk1 expression / vasculature defect,[2],a hit in the screen
"CN1CCN(CCCN2c3ccccc3Sc3ccc(C(F)(F)F)cc32)CC1 [TFP, 10-[3-(4-methylpiperazin-1-yl)propyl]-2-(trifluoromethyl)-10H-phenothiazine]",rescue of flk1 expression / vasculature defect,[2],rescued flk1 expression
same,p21 protein level,A549 cells [3],statistically significant decrease; also recorded: decrease of p21 protein
same,p53 protein level,A549 cells [3],still increased; also recorded: without a matching decrease of p53
same,p53 nuclear staining intensity,A549 cells [4]; [11],same effect was seen
same,p53 nuclear accumulation,A549 cells [4],reversed p53 nuclear accumulation
same,annexin V positivity,A549 cells [5],increased annexin V positivity
same,effect on RPS19 shRNA induced cell cycle arrest,A549 cells [6],no obvious effect
same,rescue of blood cell differentiation,Human CD34+ cells,can rescue blood cell differentiation
same,p21 mRNA,"Human CD34+ cells; RPS19 shRNA, quantitative PCR",decreased p21 mRNA to control levels
same,rescue of CD71+ expression,Human CD34+ cells; RPS19 shRNA,rescue CD71+ expression
same,concentration restoring the percentage of CD71+ cells,Human CD34+ cells; erythroid cell population in vitro,5 to 20 µM
NC(=O)c1ccc2[nH]c(-c3ccc(Oc4ccc(Cl)cc4)cc3)nc2c1 [BML-277],p53 nuclear accumulation,A549 cells [4],prevented nuclear accumulation of p53
same,rescue of CD71+ levels,Human CD34+ cells; inhibitor panel against individual calmodulin-dependent enzymes,rescued CD71+ levels
same,EC50,[7],3 to 7.6 µM
Cl.NCCCCCCNS(=O)(=O)c1cccc2ccccc12 [W-5],rescue of flk1 expression / vasculature defect,[2],rescue the vasculature defect
Cl.NCCCCCCCCCCNS(=O)(=O)c1cccc2c(Cl)cccc12 [A-7],rescue of flk1 expression / vasculature defect,[2],rescue the vasculature defect
NCCNS(=O)(=O)c1cccc2c(Cl)cccc12 [A-3],rescue of flk1 expression / vasculature defect,[2],did not rescue the vasculature
same,rescue of hemoglobin levels,rps29 mutant embryos,rescue hemoglobin levels
same,p21 protein level,A549 cells [3],statistically significant decrease; also recorded: decrease of p21 protein
same,p53 protein level,A549 cells [3],still increased; also recorded: without a matching decrease of p53
same,time of treatment until p21 protein levels begin to decrease,"A549 cells [3]; A549, shorter treatment windows (FIG. 3E-3F, timecourse of A-3 treatment)",≤ 1.5 h
same,p53 nuclear staining intensity,A549 cells [4]; [11],decreased
same,p21 nuclear staining intensity,"A549 cells [4]; A549, RPS19 knockdown, ImageJ, 10-15 cells per condition, p=0.007 for A-3",decreased
same,p53 nuclear accumulation,A549 cells [4],reversed p53 nuclear accumulation
same,annexin V positivity,A549 cells [5],increased annexin V positivity
same,effect on RPS19 shRNA induced cell cycle arrest,A549 cells [6],no obvious effect
same,concentration decreasing the levels of p21 in CD34+ cells,CD34+ cells; CD34+ cells in an erythroid cell population in vitro,1 to 50 µM
same,p21 protein,"CD34+ cells; CD34+ cells, RPS19 knockdown, erythroid proliferation media",decrease p21 protein
same,inhibition of calmodulin dependent PDE1 compared with other calmodulin-dependent enzymes,[8],less effective inhibitor
same,rescue of head morphology,[9],rescued the morphology
"CC1(CN2CCC(n3c(=O)[nH]c4ccccc43)CC2)OCc2ccccc2-n2cccc21 (centres unmarked) [CGS-9343B, zaldaride maleate]",rescue of flk1 expression / vasculature defect,[2],rescued flk1 expression
COc1ccc(CCN(C)CCc2ccc(OC)c(OC)c2)cc1OC [YS-035],rescue of flk1 expression / vasculature defect,[2],rescued the vasculature defect
"Cl.NCCCCCCNS(=O)(=O)c1cccc2c(Cl)cccc12 [W-7, N-(6-Aminohexyl)-5-chloro-1-naphthalenesulfonamide hydrochloride]",rescue of flk1 expression / vasculature defect,[2],rescue flk1 expression
same,rescue of hemoglobin levels,rps29 mutant embryos,rescues hemoglobin levels
"OCCN1CCN(CCCN2c3ccccc3Sc3ccc(Cl)cc32)CC1 [perphenazine, 4-[3-(2-Chloro-10H-phenothiazin-10-yl)propyl]-1-piperazineethanol]",rescue of blood cell differentiation,Human CD34+ cells,can rescue blood cell differentiation
same,oral bioavailability,[10],approximately 40%
CC(=O)N[C@@H](C(=O)O)C(C)(C)SN=O (racemic) [SNAP],rescue of flk1 expression / vasculature defect,[2],rescued flk1 intersegmental vessel staining

# Source: patent US11654149B2, “Calmodulin inhibitors for the treatment of ribosomal disorders and ribosomapathies” (CHILDREN'S MEDICAL CENTER CORPORATION, priority 2012, dated 2023)
